# Experimental data published in patent US7772241B2, “Variolin derivatives and their use as antitumor agents” (Pharma Mar S.A., priority 2001, dated 2010).
# Read-outs that look alike come from different tables or passages of the source.
# Assays:
# [1] = system: HT-29; assay: Inhibition of cells growth by colorimetric (SRB) assay, HT-29; settings: for CC50: read-out: LC50 HT-29, SRB assay, 48 hours exposure
# Method in brief: (§1)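 Human tumour cells seeded at 5×10^3/well in RPMI 1640 10% FBS, attached 18 h, then exposed 48 h to samples at 10 to 10^−8 μg/ml in DMSO/EtOH/PBS (0.5:0.5:99). Growth read by SRB staining after TCA fixation, OD 490 nm, triplicate wells; GI, TGI and LC derived.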
# [2] = system: A-549; assay: Inhibition of cells growth by colorimetric (SRB) assay, A-549
# Method in brief: as §1
# [3] = Inhibition of cells growth by colorimetric (SRB) assay, HMEC1; settings: human, HMEC1 cells, LC50 H-MEC-1, SRB assay, 48 hours exposure
# [4] = system: HMEC1; assay: as above; settings: for GI50: Homo sapiens, HMEC-1, 48 h, read-out: GI50 H-MEC-1, SRB assay, 48 hours exposure; for TGI H-MEC-1: SRB assay, 48 hours exposure, in M (unit assumed)
# [5] = system: DU-145; assay: Inhibition of cells growth by colorimetric (SRB) assay, DU-145; settings: for GI50: read-out: GI50 DU-145, SRB assay, 48 hours exposure
# Method in brief: as §1
# [6] = system: PANC-1; assay: Inhibition of cells growth by colorimetric (SRB) assay, PANC-1; settings: for GI50 / CC50: Homo sapiens, PANC-1, 48 h; for GI50: read-out: GI50 PANC-1, SRB assay, 48 hours exposure; for CC50: read-out: LC50 PANC-1, SRB assay, 48 hours exposure; for TGI PANC-1: SRB assay, 48 hours exposure
# Method in brief: as §1
# [7] = system: IGROV-ET; assay: Inhibition of cells growth by colorimetric (SRB) assay, IGROV-ET; settings: for GI50 / CC50: Homo sapiens, 48 h; for GI50: read-out: GI50 IGROV-ET, SRB assay, 48 hours exposure; for CC50: read-out: LC50 IGROV-ET, SRB assay, 48 hours exposure; for TGI IGROV-ET: SRB assay, 48 hours exposure
# Method in brief: as §1
# [8] = system: SK-MEL-28; assay: Inhibition of cells growth by colorimetric (SRB) assay, SK-MEL-28; settings: for GI50: read-out: GI50 MEL-28, SRB assay, 48 hours exposure
# Method in brief: as §1
# [9] = system: LNCaP; assay: Inhibition of cells growth by colorimetric (SRB) assay, LNCaP; settings: for GI50 / CC50: Homo sapiens, LNCaP, 48 h; for GI50: read-out: GI50 LN-caP, SRB assay, 48 hours exposure; for CC50: read-out: LC50 LN-caP, SRB assay, 48 hours exposure; for TGI LN-caP: SRB assay, 48 hours exposure
# Method in brief: as §1
# [10] = system: K-562; assay: Inhibition of cells growth by colorimetric (SRB) assay, K-562; settings: for GI50 / CC50: Homo sapiens, K562, 48 h; for GI50: read-out: GI50 K-562, SRB assay, 48 hours exposure; for CC50: read-out: LC50 K-562, SRB assay, 48 hours exposure; for TGI K-562: SRB assay, 48 hours exposure
# Method in brief: as §1
# [11] = system: IGROV-1; assay: Inhibition of cells growth by colorimetric (SRB) assay, IGROV-1; settings: for GI50 / CC50: Homo sapiens, IGROV-1, 48 h; for GI50: read-out: GI50 IGROV, SRB assay, 48 hours exposure; for CC50: read-out: LC50 IGROV, SRB assay, 48 hours exposure; for TGI IGROV: SRB assay, 48 hours exposure
# Method in brief: as §1
# [12] = system: SK-BR-3; assay: Inhibition of cells growth by colorimetric (SRB) assay, SK-BR-3; settings: for GI50 / CC50: Homo sapiens, SK-BR-3, 48 h; for GI50: read-out: GI50 SK-BR-3, SRB assay, 48 hours exposure; for CC50: read-out: LC50 SK-BR-3, SRB assay, 48 hours exposure; for TGI SK-BR-3: SRB assay, 48 hours exposure
# Method in brief: as §1
# [13] = system: LoVo-Dox; assay: Inhibition of cells growth by colorimetric (SRB) assay, LoVo-Dox; settings: for GI50 / CC50: Homo sapiens, 48 h; for GI50: read-out: GI50 LOVO-DOX, SRB assay, 48 hours exposure; for CC50: read-out: LC50 LOVO-DOX, SRB assay, 48 hours exposure; for TGI LOVO-DOX: SRB assay, 48 hours exposure
# Method in brief: as §1
# [14] = system: LoVo; assay: Inhibition of cells growth by colorimetric (SRB) assay, LoVo; settings: for GI50: read-out: GI50 LOVO, SRB assay, 48 hours exposure
# Method in brief: as §1
# [15] = Homo sapiens, HT-29, 48 h, read-out: GI50 HT-29, SRB assay, 48 hours exposure
# [16] = Homo sapiens, A549, 48 h, read-out: GI50 A-549, SRB assay, 48 hours exposure
# [17] = Homo sapiens, A549, 48 h, read-out: LC50 A-549, SRB assay, 48 hours exposure
# [18] = Homo sapiens, DU-145, 48 h, read-out: LC50 DU-145, SRB assay, 48 hours exposure
# [19] = Homo sapiens, SK-MEL-28, 48 h, read-out: LC50 MEL-28, SRB assay, 48 hours exposure
"GI50 [2, 16]","GI50 ([5]; Homo sapiens, DU-145, 48 h)",GI50 [6],"GI50 ([8]; Homo sapiens, SK-MEL-28, 48 h)",GI50 [9],GI50 [10],Compound,"CC50 ([1]; Homo sapiens, HT-29, 48 h)","TGI HT-29 ([1]; SRB assay, 48 hours exposure)","CC50 [2, 17]","TGI A-549 ([2]; SRB assay, 48 hours exposure)",CC50 at 48 h [3],GI50 [4],TGI H-MEC-1 [4],"TGI DU-145 ([5]; SRB assay, 48 hours exposure)",GI50 [7],CC50 [7],TGI IGROV-ET [7],"TGI MEL-28 ([8]; SRB assay, 48 hours exposure)",CC50 [9],TGI LN-caP [9],also measured
25.1 µM,,,,,,COc1nccc(-c2c3c(OCc4ccccc4)ccnc3n3c(N)nccc23)n1 [Compound 102],25.1 µM,2.51E−05,25.1 µM,2.51E−05,19.7 µM,6 µM,1.09E−05,,,,,,,,"GI50 [1, 15]: 25.1 µM"
5.49 µM,1.63 µM,9.4 µM,1.26 µM,1.4 µM,7.6 µM,COc1nccc(-c2c3c(OC)ccnc3n3c(N)nccc23)n1 [Compound 109],,,31 µM,2.33E−05,31 µM,2.04 µM,2.17E−05,3.10E−05,7.17 µM,31 µM,2.21E−05,6.64E−06,31 µM,4.81E−06,"CC50 [5, 18]: 31 µM; CC50 [8, 19]: 22.4 µM; CC50 [10]: 31 µM; TGI K-562 [10]: 2.41E−05; GI50 [11]: 3.07 µM; CC50 [11]: 31 µM; TGI IGROV [11]: 1.46E−05; GI50 [12]: 1.47 µM; CC50 [12]: 31 µM; TGI SK-BR-3 [12]: 5.40E−06"
,0.732 µM,1.35 µM,0.605 µM,0.625 µM,1.7 µM,COc1ccnc2c1c(-c1ccnc(N)n1)c1ccnc(N)n12 [Compound 114],32.5 µM,3.25E−06,,1.72E−06,2.65 µM,0.67 µM,1.33E−06,1.75E−06,1.51 µM,25.4 µM,3.29E−06,1.20E−06,2.35 µM,1.21E−06,"CC50 ([5]; read-out: LC50 DU-145, SRB assay, 48 hours exposure): 6.22 µM; CC50 [6]: 32.5 µM; TGI PANC-1 [6]: 6.18E−06; GI50 [13]: 0.827 µM; CC50 [13]: 32.5 µM; TGI LOVO-DOX [13]: 2.41E−06; CC50 ([8]; read-out: LC50 MEL-28, SRB assay, 48 hours exposure): 2.4 µM; CC50 [10]: 16.2 µM; TGI K-562 [10]: 2.98E−06; GI50 ([1]; read-out: GI50 HT-29, SRB assay, 48 hours exposure): 1.04 µM; GI50 [11]: 0.843 µM; CC50 [11]: 15.8 µM; TGI IGROV [11]: 1.81E−06; GI50 ([2]; read-out: GI50 A-549, SRB assay, 48 hours exposure): 0.553 µM; CC50 ([2]; read-out: LC50 A-549, SRB assay, 48 hours exposure): 8.23 µM; GI50 ([14]; Homo sapiens, LoVo, 48 h): 0.54 µM; TGI LOVO ([14]; SRB assay, 48 hours exposure): 1.98E−06; CC50 ([14]; read-out: LC50 LOVO, SRB assay, 48 hours exposure): 10.3 µM"
0.748 µM,0.759 µM,2.05 µM,1.12 µM,0.721 µM,4.47 µM,Nc1nccc(-c2c3c(F)ccnc3n3c(N)nccc23)n1 [Compound 115],≥ 33.9 µM,1.31E−05,≥ 33.9 µM,1.97E−06,5.96 µM,0.599 µM,1.56E−06,1.79E−06,1.47 µM,≥ 33.9 µM,6.84E−06,4.13E−06,2.34 µM,1.30E−06,"CC50 [5, 18]: 10.7 µM; CC50 [6]: ≥ 33.9 µM; TGI PANC-1 [6]: 9.35E−06; GI50 [13]: 1.39 µM; CC50 [13]: ≥ 33.9 µM; TGI LOVO-DOX [13]: 5.76E−06; CC50 [8, 19]: 12.1 µM; CC50 [10]: 28.9 µM; TGI K-562 [10]: 1.13E−05; GI50 [1, 15]: 2.15 µM; GI50 [11]: 1.23 µM; CC50 [11]: ≥ 33.9 µM; TGI IGROV [11]: 5.22E−06; GI50 [12]: 0.752 µM; CC50 [12]: 6.23 µM; TGI SK-BR-3 [12]: 1.69E−06; GI50 ([14]; Homo sapiens, LoVo, 48 h): 0.894 µM; CC50 ([14]; Homo sapiens, LoVo, 48 h, read-out: LC50 LOVO, SRB assay, 48 hours exposure): ≥ 33.9 µM; TGI LOVO ([14]; SRB assay, 48 hours exposure): 1.91E−06"
